From article PMC13252604, “First Generation Proteolysis Targeting Chimeras (PROTACs) for the Treatment of Progeria” (Advanced Science, 2026)

System: HGADFN167 cells
Assay: RNA-seq global transcriptomic analysis
Format: cell-based, human
Conditions: HGADFN167, 5 µM, 20 days
Description: To establish the broader impact of PROTAC 2 at the molecular level, we performed detailed gene expression and pathway‐centric enrichment analysis. HGADFN167 cells were treated with either vehicle or compound 2 (5 µM) for 20 days before RNA was extracted for RNA‐seq analysis (3 independent biological samples per condition). […] Remarkably, IL6 identification supports the qPCR results previously obtained (Figure 6C). […] In line with these findings, we identified several genes associated with endothelial and blood vessel development (CLDN11 and FOXS1), ECM organization (PTX3, SCUBE3, TINAGL1, and TNFRSF11B), and mesodermal and mesenchymal regulation (MEST, MEDAG, and STC2).
Cells were harvested by trypsin, centrifuged and washed with PBS. Cells pellets were added with 70% (vol/vol) ice-cold ethanol. The mixture was incubated for 15min at 4 °C, centrifuged 2500 rpm, washed with PBS and then re-suspended in 500ul staining buffer (25ug/mL propidium iodide and 100μg/ml DNAse-free RNAse both from Sigma-Aldrich in PBS). The mixture was then allowed to incubate for 30min at 37 °C in the dark and samples were finally analysed by FACScalibur (Becton Dickinson) flow cytometer
11. Transmission electron microscopy.
Cells previously collected in 1.5 mL tube, were washed with PBS and fixed with 2.5% glutaraldehyde and 4% paraformaldehyde in Milloning´s phosphate buffer (41.5 mL 2.26% NaH2PO4·H2O and 8.5 mL 2.52% NaOH both in milliQ water, pH 7.2-7.4) for 4h at 4 °C. […]
Cells were incubated for 1 h in 1% OsO4 at room temperature and then thoroughly washed with milliQ water. […] The samples were analysed and examined in the transmission electron microscope JEM 1010 at 80 […]
Total RNA of HGPS fibroblasts (HGADFN167) and UCM-18142-treated HGPS fibroblasts were extracted for RNA sequencing. The RNA concentration and integrity were assessed using the Tape Station 4150 system (Agilent). […] All raw reads were mapped to the human genome (Grch38) using the software HISAT2. HTSeq was used to calculate Reads Count and transcripts per kilobase per million reads were computed. […]

**Q.** What does the source list for CC1(C)Oc2cc3oc(=O)ccc3cc2C[C@@H]1OC(=O)CCCCCNc1cccc2c1C(=O)N(C1CCC(=O)NC1=O)C2=O (stereo partly drawn) [compound 2]?
**A.** downregulated genes (adjusted p<0.01, log2 FC <−1.0): 205; upregulated genes (adjusted p<0.01, log2 FC >1.0): 83; differentially expressed genes, treated vs non‐treated (adjusted p<0.01, log2 FC >1.0 or <−1.0): 288
